Source: patent publication US20040258620A1, “(Ethylene)-( propylene)-triaminepentaacetic acid derivatives, process for their production, and their use for the production of pharmaceutical agents” (priority 2001, published 2004)

Columns and labels:
Format in all cases: physicochemical
[1] = 17O NMR on Gd(TRITA-bz-NO2); details: for In(1/T1r), reduced longitudinal ^17O relaxation rate / In(1/T2r), reduced transverse ^17O relaxation rate / Δwr, reduced ^17O chemical shift: B = 9.4 Tesla
Source text: The rate of water exchange, Kes, has been measured on Gd(TRITA-bz-NO2) by ^17O NMR. The numerical experimental data (reduced transverse and longitudinal ^17O relaxation rates, reduced chemical shifts) measured on a Gd(TRITA-bz-NO2) solution are shown in Table 6.

[2] = Protonation constants of the ligands by pH-potentiometry; details: protonation constant of the ligand; I=0.1M TMACI, t=25° C.
Source text: (§1) Protonation constants of the two ligands, DPTPA and EPTPA-Bz-NO2, and stability constants of their complexes formed with Gd(III) and some endogenously available cations have been determined by pH-potentiometry. The selectivity of the ligand for Gd(III) over Zn(II) (log(KGdL/KZnL)) is especially important as it directly relates to the safety of the Gd(III) contrast agent.

[3] = Stability constants of the complexes formed with Gd(III) by pH-potentiometry; details: I=0.1M TMACI, t=25° C.
Source text: as §1

[4] = Stability constants of the complexes formed with Zn(II) by pH-potentiometry; details: I=0.1M TMACI, t=25° C.
Source text: as §1

[5] = Stability constants of the Ca complexes by pH-potentiometry
Source text: as §1

For `O=C([O-])CN1CCN(CC(=O)[O-])CCN(CC(=O)[O-])CC(Cc2ccc([N+](=O)[O-])cc2)CN(CC(=O)[O-])CC1.[Gd+3]` [Gd(TRITA-bz-NO2)], the “water exchange rate Kex^298” value [1] was 1.8e+08 s⁻¹, the “In(1/T1r), reduced longitudinal ^17O relaxation rate” value ([1]; T 273.05 K) was 11.42 and the “In(1/T2r), reduced transverse ^17O relaxation rate” value ([1]; T 273.05 K) was 13.55. For the same molecule, the “Δwr, reduced ^17O chemical shift” value ([1]; T 273.05 K) was −9.34E+05 Hz, the “In(1/T1r), reduced longitudinal ^17O relaxation rate” value ([1]; T 281.75 K) was 11.08 and the “In(1/T2r), reduced transverse ^17O relaxation rate” value ([1]; T 281.75 K) was 13.31. The “Δwr, reduced ^17O chemical shift” value ([1]; T 281.75 K) was −9.23E+05 Hz, the “In(1/T1r), reduced longitudinal ^17O relaxation rate” value ([1]; T 292.45 K) was 10.60 and the “In(1/T2r), reduced transverse ^17O relaxation rate” value ([1]; T 292.45 K) was 12.96. The “Δwr, reduced ^17O chemical shift” value ([1]; T 292.45 K) was −9.15E+05 Hz, the “In(1/T1r), reduced longitudinal ^17O relaxation rate” value ([1]; T 302.25 K) was 10.44 and the “In(1/T2r), reduced transverse ^17O relaxation rate” value ([1]; T 302.25 K) was 12.54. For the same molecule, the “Δwr, reduced ^17O chemical shift” value ([1]; T 302.25 K) was −8.72E+05 Hz, the “In(1/T1r), reduced longitudinal ^17O relaxation rate” value ([1]; T 317.25 K) was 9.97 and the “In(1/T2r), reduced transverse ^17O relaxation rate” value ([1]; T 317.25 K) was 12.03. For the same molecule, the “Δwr, reduced ^17O chemical shift” value ([1]; T 317.25 K) was −8.28E+05 Hz, the “In(1/T1r), reduced longitudinal ^17O relaxation rate” value ([1]; T 330.25 K) was 9.58 and the “In(1/T2r), reduced transverse ^17O relaxation rate” value ([1]; T 330.25 K) was 11.56. The “Δwr, reduced ^17O chemical shift” value ([1]; T 330.25 K) was −7.07E+05 Hz, the “In(1/T1r), reduced longitudinal ^17O relaxation rate” value ([1]; T 349.45 K) was 9.14 and the “In(1/T2r), reduced transverse ^17O relaxation rate” value ([1]; T 349.45 K) was 11.06. For the same molecule, the “Δwr, reduced ^17O chemical shift” value ([1]; T 349.45 K) was −6.13E+05 Hz, the “inner sphere water molecules of the complex” value ([1]; according to the ^17O chemical shifts) was 1 and the A/ħ ([1]; from ^17O NMR data) was −3.5 ± 0.2 10^6 rad s^−1. The ER ([1]; from ^17O NMR data) was 5.57 ± 0.406 kcal/mol, the “ΔH^x” value ([1]; from ^17O NMR data) was 6.41 ± 0.19 kcal/mol and the “ΔS*” value ([1]; from ^17O NMR data) was “+3.0 ± 1.0 Jmol^−1K^−1”. For the same molecule, the “τR^298” value ([1]; from ^17O NMR data) was 223 ± 20 ps, the “water exchange rate, times higher than that measured on Gd(DOTA)” value ([1]; relative to Gd(DOTA)) was “over 40 times” and the “kex^298” value ([1]; water exchange rate from ^17O NMR data) was 180 ± 10 10^6 s^−1.

For `O=C(O)CN(CCCN(CC(=O)O)CC(=O)O)CCCN(CC(=O)O)CC(=O)O` [DPTPA], the pKa1 [2] was 10.91, the pKa2 [2] was 9.29 and the pKa3 [2] was 7.07. The pKa4 [2] was 2.76, the pKa5 [2] was 2.19 and the logKGdH2L [3] was 5.43. It also gave a logKGdHL [3] of 6.30, a logKGdL ([3]; stability constant) of 13.00 and a logKZnH2L [4] of 3.17. For the same molecule, the logKZnHL [4] was 8.06, the logKZnL ([4]; stability constant) was 15.60 and the logKCaH2L [5] was 6.01. It also gave a logKCaHL [5] of 8.63 and a logKCaL ([5]; stability constant) of 6.01.
